Target: Receptor-type tyrosine-protein phosphatase kappa (Homo sapiens) (UniProt Q15262)
Experiment: PTPRK phosphatase inhibition, biochemical, recombinant human enzyme, DiFMUP fluorescence (AID 404)
Conditions: at 50 µM, enzyme 34 ng/mL, 25 °C, DTT 5 mM, active compounds read high

Sequence of Receptor-type tyrosine-protein phosphatase kappa (Homo sapiens) (Q15262 whole entry, looked up): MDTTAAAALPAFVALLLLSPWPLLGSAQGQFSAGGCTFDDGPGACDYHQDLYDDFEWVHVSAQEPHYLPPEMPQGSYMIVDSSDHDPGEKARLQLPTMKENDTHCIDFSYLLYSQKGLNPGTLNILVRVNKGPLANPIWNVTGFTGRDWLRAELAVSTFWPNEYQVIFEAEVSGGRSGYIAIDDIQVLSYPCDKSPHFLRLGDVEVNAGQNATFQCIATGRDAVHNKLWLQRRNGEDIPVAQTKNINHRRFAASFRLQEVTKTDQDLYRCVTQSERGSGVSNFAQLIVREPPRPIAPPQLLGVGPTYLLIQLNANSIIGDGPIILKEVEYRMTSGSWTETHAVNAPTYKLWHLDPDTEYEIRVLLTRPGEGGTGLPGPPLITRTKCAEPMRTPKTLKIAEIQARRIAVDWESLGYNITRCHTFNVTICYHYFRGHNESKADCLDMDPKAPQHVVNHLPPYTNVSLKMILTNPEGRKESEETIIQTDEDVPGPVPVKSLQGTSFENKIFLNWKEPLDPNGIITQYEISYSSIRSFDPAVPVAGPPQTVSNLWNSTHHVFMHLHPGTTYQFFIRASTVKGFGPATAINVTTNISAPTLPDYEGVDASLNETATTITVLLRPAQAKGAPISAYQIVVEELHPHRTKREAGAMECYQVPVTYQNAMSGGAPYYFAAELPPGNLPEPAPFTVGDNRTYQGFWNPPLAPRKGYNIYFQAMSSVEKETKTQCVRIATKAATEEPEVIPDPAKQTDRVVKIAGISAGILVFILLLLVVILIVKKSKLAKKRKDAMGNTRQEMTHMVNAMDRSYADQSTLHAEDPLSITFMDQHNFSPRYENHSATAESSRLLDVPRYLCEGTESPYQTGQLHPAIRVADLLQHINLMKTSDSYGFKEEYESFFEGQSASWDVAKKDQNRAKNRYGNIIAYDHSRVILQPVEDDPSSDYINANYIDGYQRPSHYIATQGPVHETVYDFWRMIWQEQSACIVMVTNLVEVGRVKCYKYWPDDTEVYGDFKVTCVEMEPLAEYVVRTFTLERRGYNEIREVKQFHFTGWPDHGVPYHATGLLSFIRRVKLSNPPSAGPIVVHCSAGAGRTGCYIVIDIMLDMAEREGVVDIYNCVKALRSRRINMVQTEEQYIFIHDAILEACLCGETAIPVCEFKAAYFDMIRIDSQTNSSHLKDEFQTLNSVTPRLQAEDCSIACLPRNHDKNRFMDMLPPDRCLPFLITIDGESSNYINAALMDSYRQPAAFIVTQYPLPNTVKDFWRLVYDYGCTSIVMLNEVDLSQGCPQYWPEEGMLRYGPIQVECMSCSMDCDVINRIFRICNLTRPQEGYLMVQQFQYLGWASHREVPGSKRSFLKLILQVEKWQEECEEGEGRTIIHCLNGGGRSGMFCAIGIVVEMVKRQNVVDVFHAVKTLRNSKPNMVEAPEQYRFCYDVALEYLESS

Point of comparison: CN(N=O)c1ccc(O)c(O)c1, inhibition 96%. Against it:
- O=C(O)c1ccc(O)c(/C=N/N(CCO)C2=NS(=O)(=O)c3ccccc32)c1 — lower, 32%
- O=C(O)c1ccc(O)c(C=Nc2ccc3oc(-c4cccc(Cl)c4Cl)nc3c2)c1 — lower, 45%
- CC(=O)c1ccc2c(c1)C1C=CCC1C(C(=O)O)N2 (configuration not stated) — lower, 40%
- CC(C)(c1ccc(NS(=O)(=O)C(F)(F)F)cc1)c1ccc(C(C)(C)c2ccc(NS(=O)(=O)C(F)(F)F)cc2)cc1 — lower, 14%
- F — lower, 14%
- CC1=C(C)OC(Nc2ccc(Br)cc2C(=O)O)C=C1 (configuration not stated) — lower, 15%
- O=C1NC(=S)S/C1=C\C=C\c1ccc([N+](=O)[O-])o1 — lower, 78%
- O=C(Nc1ccc(O)cc1C(=O)O)c1ccc(NC(=O)c2ccco2)cc1 — lower, 18%
- OO.OO.[K+].[O]=[V].c1ccc(-c2ccccn2)nc1 — lower, 93%
- O=C(O)c1ccc(O)c(C=Nc2cccc(-c3nc4ccccc4o3)c2)c1 — lower, 31%
- CC1(C)OC(=O)C(=Cc2ccc(Br)o2)C(=O)O1 — lower, 11%
- [NH-]CO.[NH-]CO.[NH-]CO.[NH-]CO.[O]=[V][O][V]=[O] — lower, 89%
- Cc1cc(C)c(N2C(=O)c3ccc(C(=O)Nc4ccc(O)cc4C(=O)O)cc3C2=O)c(C)c1 — lower, 38%
- CC(C)(C)NC(=O)CCN(/N=C/c1cc(C(=O)O)ccc1O)C1=NS(=O)(=O)c2ccccc21 — lower, 30%
- Cc1c(Cl)c(C)c([N+](=O)[O-])c(O)c1C=Nc1ccc(O)cc1C(=O)O — lower, 78%
- CC(C)CCN1C(=O)c2ccc(C(=O)Nc3ccc(O)cc3C(=O)O)cc2C1=O — lower, 14%
- O=C([O-])c1ccccn1.OO.OO.[K+].[K+].[O]=[V] — higher, 98%
- O=C(COc1ccc([N+](=O)[O-])cc1)Nc1ccc(O)cc1C(=O)O — lower, 20%
- Cc1ccc(N=Cc2cc(C(=O)O)ccc2O)c(O)c1 — lower, 20%
- O=C(O)c1ccc(O)c(C=Nc2ccc3oc(-c4cc(Cl)ccc4Cl)nc3c2)c1 — lower, 15%
- COc1cccc(-c2nc3cc(N=Cc4cc(C(=O)O)ccc4O)ccc3o2)c1 — lower, 29%
- O=C(Nc1ccc(O)cc1C(=O)O)c1ccc2c(c1)C(=O)N(CC1CCCO1)C2=O (configuration not stated) — lower, 12%
- O=C(O)c1ccc([O-])cn1.OO.OO.[K+].[K+].[O]=[V] — higher, 100%
- O=C(O)c1ccc(O)cn1.OO.[O]=[V] — lower, 94%
- Cc1ccc2nc(-c3cc(N=Cc4cc(C(=O)O)ccc4O)ccc3O)[nH]c2c1 — lower, 34%
- NC1=NC(=O)/C(=C/C=C/c2ccc([N+](=O)[O-])o2)S1 — lower, 24%
- CC(C)CN1C(=O)c2ccc(C(=O)Nc3ccc(O)cc3C(=O)O)cc2C1=O — lower, 41%
- COc1ccc(-c2nc3cc(N=Cc4cc(C(=O)O)ccc4O)ccc3o2)cc1 — lower, 72%
- Oc1c(Cl)c(Cl)c(O)c2nsnc12 — lower, 12%
- O=C1NC(=S)NC(=O)C1=C/C=C/c1ccco1 — lower, 22%
- OO.OO.[K+].[O]=[V].c1cnc2c(c1)ccc1cccnc12 — the same, 96%
